Data set [1] deals with human Nav1.8 sodium channel (Homo sapiens, UniProt Q9Y5Y9). The data set can be described thus: Blocking activity on sodium channel 1.8 (Nav1.8), whole-cell manual patch clamp. The format is cell-based. Conditions: for inhibition at 0.001 µM: read-out: inhibition Percent @1 nM, 1 nM compound; for inhibition at 0.03 µM: read-out: inhibition Percent @30 nM, 30 nM compound; for inhibition at 0.01 µM: read-out: inhibition Percent @10 nM, 10 nM compound.

Data set [2] is described as follows: In vivo pharmacokinetics in rats, single intravenous injection or oral gavage. Conditions: male, SD, plasma, Rat. How it is done: The in vivo pharmacokinetics in rats were evaluated via a single intravenous injection or oral gavage administration in this test example. • 1. Test Methods and Conditions: Male SD rats were fasted overnight and administered a single intravenous dose of 2 mg/kg or 1 mg/kg of the test compound (solvent for Intravenous administration was 5% DMSO/10% Solutol® HS 15/10% EtOH/75% saline, with a dosing volume of 5 mL/kg) and an oral gavage dose of 10 mg/kg or 5 mg/kg of the test compound (solvent for administration was 0.5% CMC-Na, with a dosing volume of 10 mL/kg), respectively. • 2. Sampling Information: Blood samples (0.2 mL) were collected from the retroorbital venous plexus at the designated time points: 0.25, 0.5, 1.0, 2.0, 3.0, 4.0, 6.0, 8.0, and 24 hours before and after dosing (a 5 min sampling point was added for the intravenous administration group), respectively. The samples were placed in EDTA-K2 tubes and centrifuged at 11,000 rpm for 5 minutes. Plasma was separated and frozen at -20°C. • 3. Assay Information: LC/MS/MS was used to determine the concentration of the parent drug in rat/mouse plasma following intravenous and oral gavage administration of the test compound. Pharmacokinetic parameters in rat/mouse plasma were calculated for both administration routes, and the bioavailability of each compound in rats was also calculated. Table 5: Intravenous Pharmacokinetic Information of Representative Compounds

[3] abbreviates: intravenous, single dose 2 mg/kg or 1 mg/kg (figure not given).

Structures are written as SMILES.

Chain of human Nav1.8 sodium channel (Q9Y5Y9 whole entry): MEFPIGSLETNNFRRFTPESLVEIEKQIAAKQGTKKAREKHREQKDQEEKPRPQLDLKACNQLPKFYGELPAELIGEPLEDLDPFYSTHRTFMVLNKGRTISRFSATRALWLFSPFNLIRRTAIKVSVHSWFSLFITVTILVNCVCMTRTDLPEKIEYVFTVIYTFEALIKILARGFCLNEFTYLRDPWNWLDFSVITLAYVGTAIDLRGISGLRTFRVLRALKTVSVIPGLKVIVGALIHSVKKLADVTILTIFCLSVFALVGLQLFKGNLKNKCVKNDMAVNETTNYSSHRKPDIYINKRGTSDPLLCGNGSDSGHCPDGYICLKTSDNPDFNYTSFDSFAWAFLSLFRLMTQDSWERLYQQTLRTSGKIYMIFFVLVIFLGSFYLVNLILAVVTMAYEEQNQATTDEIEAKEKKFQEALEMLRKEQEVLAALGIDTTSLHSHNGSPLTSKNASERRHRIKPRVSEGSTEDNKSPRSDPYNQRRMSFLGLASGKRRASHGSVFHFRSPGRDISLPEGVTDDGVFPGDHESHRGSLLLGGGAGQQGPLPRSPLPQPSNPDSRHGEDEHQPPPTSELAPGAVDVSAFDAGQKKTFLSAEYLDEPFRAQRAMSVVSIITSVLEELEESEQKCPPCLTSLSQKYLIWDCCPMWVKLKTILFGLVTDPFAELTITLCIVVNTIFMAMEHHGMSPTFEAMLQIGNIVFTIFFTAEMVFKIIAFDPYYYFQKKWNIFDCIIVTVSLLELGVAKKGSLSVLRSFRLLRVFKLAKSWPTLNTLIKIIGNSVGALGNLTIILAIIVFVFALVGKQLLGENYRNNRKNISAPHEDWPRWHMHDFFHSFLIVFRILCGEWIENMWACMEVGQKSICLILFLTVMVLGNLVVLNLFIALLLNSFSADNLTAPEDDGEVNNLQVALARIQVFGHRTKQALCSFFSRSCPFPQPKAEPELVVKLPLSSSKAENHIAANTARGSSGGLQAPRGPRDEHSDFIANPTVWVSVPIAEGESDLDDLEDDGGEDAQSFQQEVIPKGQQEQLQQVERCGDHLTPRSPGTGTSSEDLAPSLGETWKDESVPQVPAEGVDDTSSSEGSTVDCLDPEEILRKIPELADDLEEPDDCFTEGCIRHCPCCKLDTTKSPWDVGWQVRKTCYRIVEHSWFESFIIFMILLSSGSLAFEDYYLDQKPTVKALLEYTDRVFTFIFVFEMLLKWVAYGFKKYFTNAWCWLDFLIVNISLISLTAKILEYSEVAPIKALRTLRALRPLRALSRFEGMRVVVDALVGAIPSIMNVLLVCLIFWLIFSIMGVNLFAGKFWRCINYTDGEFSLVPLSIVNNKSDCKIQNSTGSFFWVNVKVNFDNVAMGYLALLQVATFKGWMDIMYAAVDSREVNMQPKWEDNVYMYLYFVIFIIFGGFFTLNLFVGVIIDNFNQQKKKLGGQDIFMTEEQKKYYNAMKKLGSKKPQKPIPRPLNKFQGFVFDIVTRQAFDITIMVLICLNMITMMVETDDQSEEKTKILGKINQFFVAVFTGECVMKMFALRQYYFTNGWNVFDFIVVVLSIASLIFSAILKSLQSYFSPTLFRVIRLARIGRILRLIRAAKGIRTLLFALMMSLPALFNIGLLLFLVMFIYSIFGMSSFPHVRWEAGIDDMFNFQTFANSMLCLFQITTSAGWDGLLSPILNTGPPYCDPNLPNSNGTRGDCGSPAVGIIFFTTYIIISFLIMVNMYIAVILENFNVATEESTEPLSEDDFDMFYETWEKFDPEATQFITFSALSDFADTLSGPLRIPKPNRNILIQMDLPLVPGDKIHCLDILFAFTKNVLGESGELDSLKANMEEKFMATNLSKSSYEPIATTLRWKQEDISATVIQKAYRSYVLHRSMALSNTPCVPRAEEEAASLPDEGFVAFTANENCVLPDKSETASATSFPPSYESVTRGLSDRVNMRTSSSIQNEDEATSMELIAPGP

A word on the inhibition: it is the drop in the measured response relative to a control, in per cent. As usually defined, the AUC(0-t) is the area under the concentration-time curve up to a stated or last time point. A lower AUC(0-t) goes with low exposure. By half-life is commonly meant the time in which the quantity being followed falls by half. Low readings indicate fast loss, high ones slow loss. A word on the Cmax: it is the maximum level reached in the sampled fluid or tissue. By Tmax is commonly meant the time at which the peak concentration occurs. The term bioavailability denotes the share of a dose that reaches the circulation, judged against a reference dose that is usually intravenous. A higher bioavailability goes with much systemic uptake. Regarding `Cc1nc(N2CCCC(F)(F)CC2)c(C(=O)Nc2ccc(F)c(C(N)=NO)c2)cc1Cl` [Compound I-1, 5-chloro-2-(4,4-difluoroazepan-1-yl)-N-(4-fluoro-3-(N'-hydroxyamidino)phenyl)-6-met hylnicotinamide], the inhibition at 0.001 µM in data set [1] was found to be 71%. Also, in data set [2] (setting [3]), the AUC(0-t) was 1290 ng·h/mL, the clearance was determined as 29.6 mL/min/kg and the half-life is 43.4 min. For the same compound, the Vd in data set [2] (intravenous, single dose 2 mg/kg or 1 mg/kg (figure not given), read-out: Vss) turned out to be 0.638 L/kg. In data set [2] (oral gavage, 10mg/kg), the AUC(0-t) turned out to be 546 ng·h/mL, the Cmax was determined as 433 ng/mL, the time of peak concentration (Tmax) was determined as 30 min and the half-life was 89.4 min. Further, the bioavailability in data set [2] (oral gavage, 10mg/kg, bioavailability) was 8.7%.

Take `Cc1ccc(NC(=O)c2cc(Cl)c(C)nc2N2CCCC(F)(F)CC2)cc1C(=N)N` [Compound I-8, N-(3-amidino-4-methylphenyl)-5-chloro-2-(4,4-difluoroazepan-1-yl)-6-methylnicotinamide]: in data set [1], the inhibition at 0.001 µM was 51%.

On to `COc1ccc(NC(=O)c2cc(Cl)c(C)nc2N2CCCC(F)(F)CC2)cc1C(=N)N` [Compound I-10, N-(3-amidino-4-methoxyphenyl)-5-chloro-2-(4,4-difluoroazepan-1-yl)-6-methylnicoti namide], for which the inhibition at 0.001 µM in data set [1] was 32%.

In the case of `Cc1nc(N2CCCC(F)(F)CC2)c(C(=O)Nc2cccc(C(N)=NO)c2)cc1Cl` [Compound I-11, 5-chloro-2-(4,4-difluoroazepan-1-yl)-N-(3-(N'-hydroxyamidino)phenyl)-6-methylnicoti namide], the inhibition at 0.001 µM in data set [1] worked out at 90%.

One may read the IC50 as the concentration that gives 50% inhibition. As to `Cc1nc(N2CCCC(F)(F)CC2)c(C(=O)Nc2cccc(C(=N)N)c2)cc1Cl` [Compound I-12, N-(3-amidinophenyl)-5-chloro-2-(4,4-difluoroazepan-1-yl)-6-methylnicotinamide], in data set [1] (Nav1.8 channel current, HEK293 cells stably expressing human Nav1.8, clamped at -60 mV, mean ± SEM, read-out: IC50), the IC50 is 0.26 ± 0.06 nM. Also, in data set [1], the inhibition at 0.001 µM amounted to 73%.

For `Cc1nc(N2CCCC(F)(F)CC2)c(C(=O)Nc2ccc(C(N)=NO)cc2)cc1Cl` [Compound I-13, 5-chloro-2-(4,4-difluoroazepan-1-yl)-N-(4-(N'-hydroxyamidino)phenyl)-6-methylnicoti namide], in data set [1], the inhibition at 0.001 µM was 85%.

As for `Cc1nc(N2CCCC(F)(F)CC2)c(C(=O)Nc2ccnc(C(N)=NO)c2)cc1Cl` [Compound I-15, 5-chloro-2-(4,4-difluoroazepan-1-yl)-N-(2-(N'-hydroxyamidinoimino)pyridin-4-yl)-6-m ethylnicotinamide], the inhibition at 0.001 µM in data set [1] came to 66%.

For `Cc1nc(N2CCCC(F)(F)CC2)c(C(=O)Nc2ccc(F)c(C(=O)NC(=N)N)c2)cc1Cl` [Compound I-17, N-(3-(amidinocarbamoyl)-4-fluorophenyl)-5-chloro-2-(4,4-difluoroazepan-1-yl)-6-met hylnicotinamide], the inhibition at 0.03 µM in data set [1] was determined as 99%.

For `Cc1nc(N2CCCC(F)(F)CC2)c(C(=O)Nc2cccc(C(=O)NC(=N)N)c2)cc1Cl` [Compound I-18, N-(3-(amidinocarbamoyl)phenyl)-5-chloro-2-(4,4-difluoroazepan-1-yl)-6-methylnicoti namide], the inhibition at 0.03 µM in data set [1] is 90%.

With `Cc1nc(N2CCCC(F)(F)CC2)c(C(=O)Nc2ccc(F)c(NC(=N)N)c2)cc1Cl` [Compound I-19, 5-chloro-2-(4,4-difluoroazepan-1-yl)-N-(4-fluoro-3-guanidinophenyl)-6-methylnicotin amide], the inhibition at 0.001 µM in data set [1] came to 49%.

Take `Cc1nc(N2CCCCCC2)c(C(=O)Nc2cccc(C(=N)N)c2)cc1Cl` [Compound I-23, 2-(azepan-1-yl)-N-(3-amidinophenyl)-5-chloro-6-methylnicotinamide]: the inhibition at 0.03 µM in data set [1] turned out to be 95%.

Regarding `C#Cc1cc(C(=O)Nc2ccc(F)c(C(N)=NO)c2)c(N2CCCC(F)(F)CC2)nc1C` [Compound I-26, 2-(4,4-difluoroazepan-1-yl)-5-ethynyl-N-(4-fluoro-3-(N'-hydroxyamidino)phenyl)-6-m ethylnicotinamide], the inhibition at 0.01 µM in data set [1] was 76%.

As for `Cc1nc(N2CCCC(F)(F)CC2)c(C(=O)Nc2ccc(F)c(C(N)=NO)c2)cc1C(F)(F)F` [Compound I-27, 2-(4,4-difluoroazepan-1-yl)-N-(4-fluoro-3-(N'-hydroxyamidino)phenyl)-6-methyl-5-(trifluoromethyl)nicotinamide], in data set [1], the inhibition at 0.01 µM is 83%.

For `Cc1ccc(C(=O)Nc2ccc(F)c(C(N)=NO)c2)c(N2CCCC(F)(F)CC2)n1` [Compound I-29, 2-(4,4-difluoroazepan-1-yl)-N-(4-fluoro-3-(N'-hydroxyamidino)phenyl)-6-methylnicoti namide], the inhibition at 0.01 µM in data set [1] was 57%.

`O=C(Nc1ccc2c(c1)S(=O)(=O)NC2)c1c(N2CCCC(F)(F)CC2)ccc(C(F)(F)F)c1Cl` [Compound I-31, 2-chloro-6-(4,4-difluoroazepan-1-yl)-N-(1,1-dioxo-2,3-dihydrobenzisothiazol-6-yl)-3-tr ifluoromethylbenzamide]: the inhibition at 0.001 µM in data set [1] was determined as 46%.

Turning to `NC(=NO)c1cc(NC(=O)c2c(N3CCCC(F)(F)CC3)ccc(C(F)(F)F)c2Cl)ccc1F` [Compound I-32, 2-chloro-6-(4,4-difluoroazepan-1-yl)-N-(4-fluoro-3-(N'-hydroxyamidino)phenyl)-3-(trifluoromethyl)benzamide], the inhibition at 0.001 µM in data set [1] was determined as 50%.

In the case of `N#CN=C(N)c1cc(NC(=O)c2cc(Cl)c(C(F)(F)F)nc2N2CCCC(F)(F)CC2)ccc1F` [Compound I-37, 5-chloro-N-(3-(N'-cyanoamidino)-4-fluorophenyl)-2-(4,4-difluoroazepan-1-yl)-6-triflu oromethylnicotinamide], the inhibition at 0.01 µM in data set [1] worked out at 62%.

Consider `NC(=NO)c1cc(NC(=O)c2cc(Cl)c(C(F)F)nc2N2CCCC(F)(F)CC2)ccc1F` [Compound I-38, 5-chloro-2-(4,4-difluoroazepan-1-yl)-6-(difluoromethyl)-N-(4-fluoro-3-(N'-hydroxyamidino)phenyl)nicotinamide], for which the inhibition at 0.001 µM in data set [1] was 33%.

Turning to `N=C(N)c1cc(NC(=O)c2cc(Cl)c(C(F)F)nc2C2CCCC(F)(F)CC2)ccc1F` (stereo not shown) [Compound I-39, N-(3-amidino-4-fluorophenyl)-5-chloro-2-(4,4-difluorocycloheptan-1-yl)-6-difluorome thylnicotinamide], in data set [1], the inhibition at 0.001 µM worked out at 51%.

Turning to `[2H]Cc1nc(N2CCCC(F)(F)CC2)c(C(=O)Nc2ccc(F)c(C(N)=NO)c2)cc1Cl` [Compound I-42, 5-chloro-2-(4,4-difluoroazepan-1-yl)-N-(4-fluoro-3-(N'-hydroxyamidino)phenyl)-6-deu teromethylnicotinamide], the inhibition at 0.001 µM in data set [1] was determined as 65%.

`CN(C)c1nc(N2CCCC(F)(F)CC2)c(C(=O)Nc2ccc(F)c(C(N)=NO)c2)cc1Cl` [Compound I-43, 5-chloro-2-(4,4-difluoroazepan-1-yl)-6-(dimethylamino)-N-(4-fluoro-3-(N'-hydroxyamidino)phenyl)nicotinamide]: in data set [1], the inhibition at 0.001 µM worked out at 55%.

With `NC(=NO)c1cc(NC(=O)c2cc(Cl)c(CF)nc2N2CCCC(F)(F)CC2)ccc1F` [Compound I-44, 5-chloro-2-(4,4-difluoroazepan-1-yl)-N-(4-fluoro-3-(N'-hydroxyamidino)phenyl)-6-(fluoromethyl)nicotinamide], in data set [1], the inhibition at 0.001 µM was 32%.

`CCc1nc(N2CCCC(F)(F)CC2)c(C(=O)Nc2ccc(F)c(C(N)=NO)c2)cc1Cl` [Compound I-45, 5-chloro-2-(4,4-difluoroazepan-1-yl)-6-ethyl-N-(4-fluoro-3-(N'-hydroxyamidino)pheny I)nicotinamide]: the inhibition at 0.001 µM in data set [1] was 94%.

In the case of `NC(=NO)c1cc(NC(=O)c2cc(Cl)c(N3CCCC3)nc2N2CCCC(F)(F)CC2)ccc1F` [Compound I-46, 5-chloro-2-(4,4-difluoroazepan-1-yl)-N-(4-fluoro-3-(N'-hydroxyamidino)phenyl)-6-(pyrrolidinyl)nicotinamide], the inhibition at 0.01 µM in data set [1] is 50%.

For `NC(=NO)c1cc(NC(=O)c2cc(Cl)c(Cl)cc2N2CCCC(F)(F)CC2)ccc1F` [Compound I-47, 4,5-dichloro-2-(4,4-difluoroazepan-1-yl)-N-(4-fluoro-3-(N'-hydroxyamidino)phenyl)be nzamide], in data set [1], the inhibition at 0.01 µM came out at 80%.

For `NC(=NO)c1cccc(NC(=O)c2cc(Cl)c(C(F)(F)F)cc2N2CCCC(F)(F)CC2)c1` [Compound I-48, 5-chloro-2-(4,4-difluoroazepan-1-yl)-N-(3-(N'-hydroxyamidino)phenyl)-4-trifluoromet hylbenzamide], the inhibition at 0.01 µM in data set [1] was determined as 77%.

As to `NC(=NO)c1cccc(NC(=O)c2c(N3CCCC(F)(F)CC3)ccc(Cl)c2C(F)(F)F)c1` [Compound I-49, 5-chloro-2-(4,4-difluoroazepan-1-yl)-N-(3-(N'-hydroxyamidino)phenyl)-6-(trifluoromethyl)benzamide], in data set [1], the inhibition at 0.01 µM was 77%.

The values above are taken from patent EP4700018A1, “NAV1.8 INHIBITORS, PREPARATION METHOD THEREFOR AND USE THEREOF” (Shanghai Institute of Materia Medica, Chinese Academy of …, priority 2023, dated 2024).
